Laboratory results from ChEMBL document CHEMBL3991601, “The target landscape of clinical kinase drugs” (Science, 2017).
The source made the active and inactive calls. Rule as the data show it, for most assays here: actives have a measured Kd and inactives only a lower limit.

Assays:
Activin receptor type-1 = target: T1, Activin receptor type-1 (Homo sapiens, UniProt Q04771)
T1 sequence (Q04771 whole entry): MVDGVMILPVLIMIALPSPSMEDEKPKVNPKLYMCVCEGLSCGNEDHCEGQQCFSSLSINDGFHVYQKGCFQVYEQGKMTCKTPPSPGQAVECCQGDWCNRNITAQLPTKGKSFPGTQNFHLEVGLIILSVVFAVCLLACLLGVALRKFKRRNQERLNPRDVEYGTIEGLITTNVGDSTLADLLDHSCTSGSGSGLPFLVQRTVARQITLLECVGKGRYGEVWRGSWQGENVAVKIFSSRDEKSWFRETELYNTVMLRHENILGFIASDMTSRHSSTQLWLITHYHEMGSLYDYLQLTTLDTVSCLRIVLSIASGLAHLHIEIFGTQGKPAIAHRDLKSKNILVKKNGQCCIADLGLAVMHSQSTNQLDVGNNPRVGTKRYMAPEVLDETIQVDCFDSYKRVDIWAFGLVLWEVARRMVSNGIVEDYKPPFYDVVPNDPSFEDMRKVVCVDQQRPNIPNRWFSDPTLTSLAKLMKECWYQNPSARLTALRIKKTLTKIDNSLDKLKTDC

Aurora kinase A = target: T2, Aurora kinase A (Homo sapiens, UniProt O14965)
T2 sequence (O14965 whole entry): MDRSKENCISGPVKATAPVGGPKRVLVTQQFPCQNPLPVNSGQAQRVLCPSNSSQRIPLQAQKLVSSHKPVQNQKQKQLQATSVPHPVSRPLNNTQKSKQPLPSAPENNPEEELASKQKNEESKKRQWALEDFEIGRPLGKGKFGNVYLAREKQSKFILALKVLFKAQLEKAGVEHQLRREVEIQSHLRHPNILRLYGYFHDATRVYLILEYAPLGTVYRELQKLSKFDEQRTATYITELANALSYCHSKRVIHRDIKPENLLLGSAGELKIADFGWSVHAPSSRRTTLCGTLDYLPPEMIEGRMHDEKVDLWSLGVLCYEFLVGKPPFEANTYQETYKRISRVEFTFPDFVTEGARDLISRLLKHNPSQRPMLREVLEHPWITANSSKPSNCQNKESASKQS

[1] = target: Calcium/calmodulin-dependent protein kinase type II subunit delta (Homo sapiens, UniProt Q13557)
Chain of Calcium/calmodulin-dependent protein kinase type II subunit delta (Q13557 whole entry): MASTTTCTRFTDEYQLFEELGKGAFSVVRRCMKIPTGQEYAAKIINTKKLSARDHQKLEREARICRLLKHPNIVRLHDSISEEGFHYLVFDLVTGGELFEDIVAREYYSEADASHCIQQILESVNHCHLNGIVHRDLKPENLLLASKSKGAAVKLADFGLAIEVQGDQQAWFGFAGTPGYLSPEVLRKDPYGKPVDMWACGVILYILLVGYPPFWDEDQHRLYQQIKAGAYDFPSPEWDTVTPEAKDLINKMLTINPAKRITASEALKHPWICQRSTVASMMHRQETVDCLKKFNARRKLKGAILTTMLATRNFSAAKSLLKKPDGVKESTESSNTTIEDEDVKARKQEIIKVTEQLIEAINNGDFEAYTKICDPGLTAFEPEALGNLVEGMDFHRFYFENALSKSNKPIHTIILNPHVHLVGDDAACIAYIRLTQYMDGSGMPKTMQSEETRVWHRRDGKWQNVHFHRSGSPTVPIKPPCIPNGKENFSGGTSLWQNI

dCTP pyrophosphatase 1 = target: T3, dCTP pyrophosphatase 1 (Homo sapiens, UniProt Q9H773)
T3 sequence (Q9H773 whole entry): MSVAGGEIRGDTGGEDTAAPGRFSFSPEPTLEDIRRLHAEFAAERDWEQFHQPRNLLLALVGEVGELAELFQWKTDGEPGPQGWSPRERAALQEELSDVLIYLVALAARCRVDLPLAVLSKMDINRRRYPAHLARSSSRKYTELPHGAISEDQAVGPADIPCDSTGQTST

LIM domain kinase 2 = LIM domain kinase 2 (Homo sapiens, UniProt P53671)
Chain of LIM domain kinase 2 (P53671 whole entry, the tested form may be a part): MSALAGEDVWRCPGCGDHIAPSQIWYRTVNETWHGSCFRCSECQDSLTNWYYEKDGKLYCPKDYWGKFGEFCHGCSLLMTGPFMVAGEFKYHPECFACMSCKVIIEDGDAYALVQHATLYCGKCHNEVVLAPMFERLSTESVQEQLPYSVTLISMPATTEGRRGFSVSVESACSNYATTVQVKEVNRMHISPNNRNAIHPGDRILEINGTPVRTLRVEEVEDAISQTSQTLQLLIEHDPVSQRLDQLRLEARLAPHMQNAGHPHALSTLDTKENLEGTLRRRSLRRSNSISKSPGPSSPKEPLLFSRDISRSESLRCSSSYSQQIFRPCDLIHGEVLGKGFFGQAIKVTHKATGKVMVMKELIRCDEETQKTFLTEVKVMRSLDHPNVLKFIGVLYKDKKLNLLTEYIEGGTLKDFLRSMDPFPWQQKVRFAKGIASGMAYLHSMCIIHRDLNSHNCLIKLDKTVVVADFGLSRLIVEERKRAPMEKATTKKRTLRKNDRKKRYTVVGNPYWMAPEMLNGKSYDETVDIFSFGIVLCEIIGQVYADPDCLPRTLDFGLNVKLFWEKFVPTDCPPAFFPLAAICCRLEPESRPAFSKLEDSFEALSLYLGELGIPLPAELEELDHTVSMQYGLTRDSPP

[2] = target: T4, Mitogen-activated protein kinase kinase kinase kinase 3 (Homo sapiens, UniProt Q8IVH8)
T4 sequence (Q8IVH8 whole entry): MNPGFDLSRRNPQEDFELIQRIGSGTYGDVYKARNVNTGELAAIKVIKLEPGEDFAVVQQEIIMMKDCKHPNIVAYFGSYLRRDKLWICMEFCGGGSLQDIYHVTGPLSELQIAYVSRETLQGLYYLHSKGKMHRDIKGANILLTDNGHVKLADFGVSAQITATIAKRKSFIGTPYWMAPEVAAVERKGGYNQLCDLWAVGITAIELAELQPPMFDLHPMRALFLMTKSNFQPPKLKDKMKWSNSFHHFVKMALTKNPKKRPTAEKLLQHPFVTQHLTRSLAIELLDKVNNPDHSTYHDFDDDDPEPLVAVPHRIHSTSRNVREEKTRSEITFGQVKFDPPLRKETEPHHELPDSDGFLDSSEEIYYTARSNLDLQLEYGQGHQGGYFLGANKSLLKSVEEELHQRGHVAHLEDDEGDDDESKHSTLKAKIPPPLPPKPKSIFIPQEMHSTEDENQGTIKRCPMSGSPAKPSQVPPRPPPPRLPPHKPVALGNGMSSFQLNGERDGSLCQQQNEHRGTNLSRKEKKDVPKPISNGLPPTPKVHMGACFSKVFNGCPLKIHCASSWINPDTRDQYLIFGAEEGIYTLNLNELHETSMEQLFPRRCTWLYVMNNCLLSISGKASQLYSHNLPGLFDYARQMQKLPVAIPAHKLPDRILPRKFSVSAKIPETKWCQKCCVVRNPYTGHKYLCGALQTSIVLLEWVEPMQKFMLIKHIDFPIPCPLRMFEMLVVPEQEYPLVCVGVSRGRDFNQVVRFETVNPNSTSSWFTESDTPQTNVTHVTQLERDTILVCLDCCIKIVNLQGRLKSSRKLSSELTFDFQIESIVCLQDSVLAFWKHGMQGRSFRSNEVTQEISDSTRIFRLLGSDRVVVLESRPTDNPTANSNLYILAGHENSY

[3] = target: T5, General transcription and DNA repair factor IIH helicase subunit XPD (Homo sapiens, UniProt P18074); details: read-out: Kd apparent; k-562, colo 205, sk-n-be(2) and mv-4-11
T5 sequence (P18074 whole entry): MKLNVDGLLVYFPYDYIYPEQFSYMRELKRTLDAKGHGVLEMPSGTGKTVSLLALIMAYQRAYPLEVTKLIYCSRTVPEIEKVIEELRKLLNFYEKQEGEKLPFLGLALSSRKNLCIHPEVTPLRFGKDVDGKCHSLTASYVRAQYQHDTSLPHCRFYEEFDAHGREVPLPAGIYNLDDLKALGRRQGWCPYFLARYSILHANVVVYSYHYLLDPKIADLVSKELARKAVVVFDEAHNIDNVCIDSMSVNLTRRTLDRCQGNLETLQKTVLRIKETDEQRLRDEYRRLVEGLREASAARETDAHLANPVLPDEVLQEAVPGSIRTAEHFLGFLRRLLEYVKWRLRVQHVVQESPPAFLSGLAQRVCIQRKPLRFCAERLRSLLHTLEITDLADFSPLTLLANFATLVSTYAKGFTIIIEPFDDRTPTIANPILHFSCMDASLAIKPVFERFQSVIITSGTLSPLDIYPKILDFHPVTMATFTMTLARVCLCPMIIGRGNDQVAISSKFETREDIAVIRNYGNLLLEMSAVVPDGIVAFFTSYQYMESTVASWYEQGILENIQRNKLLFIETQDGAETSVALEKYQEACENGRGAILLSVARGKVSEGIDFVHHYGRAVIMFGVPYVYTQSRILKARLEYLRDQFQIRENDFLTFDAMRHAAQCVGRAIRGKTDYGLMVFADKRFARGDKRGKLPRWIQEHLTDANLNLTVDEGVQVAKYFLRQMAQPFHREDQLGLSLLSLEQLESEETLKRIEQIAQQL
Also: in the data inactive means no Kd found up to 30 µM.

Compound | Kd (Activin receptor type-1) | Kd (Aurora kinase A) | Kd [1] | Kd (dCTP pyrophosphatase 1) | Kd (LIM domain kinase 2) | Kd [2] | Kd [3]
COc1cc2nccc(Oc3ccc(NC(=O)Nc4cc(C)on4)c(Cl)c3)c2cc1OC [TIVOZANIB] | > 30 µM (inactive) | > 30 µM (inactive) | > 30 µM (inactive) | > 30 µM (inactive) | > 30 µM (inactive) | > 30 µM (inactive) | > 30 µM (inactive)
CNC(=O)c1ccc(-c2cnc3ncc(Cc4ccc5ncccc5c4)n3n2)cc1F [CAPMATINIB] | > 30 µM (inactive) | > 30 µM (inactive) | > 30 µM (inactive) | > 30 µM (inactive) | > 30 µM (inactive) | > 30 µM (inactive) | > 30 µM (inactive)
C[C@@H](c1ccc2nccn2c1)n1nnc2ncc(-c3cnn(C)c3)nc21 [SAVOLITINIB] | > 30 µM (inactive) | > 30 µM (inactive) | > 30 µM (inactive) | > 30 µM (inactive) | > 30 µM (inactive) | > 30 µM (inactive) | > 30 µM (inactive)
CN1CCC(COc2cnc(-c3cccc(Cn4nc(-c5cccc(C#N)c5)ccc4=O)c3)nc2)CC1 [TEPOTINIB] | > 30 µM (inactive) | > 30 µM (inactive) | > 30 µM (inactive) | > 30 µM (inactive) | > 30 µM (inactive) | > 30 µM (inactive) | > 30 µM (inactive)
Cc1cc2c(F)c(Oc3ncnn4cc(OC[C@@H](C)OC(=O)[C@H](C)N)c(C)c34)ccc2[nH]1 [BRIVANIB ALANINATE] | > 30 µM (inactive) | > 30 µM (inactive) | > 30 µM (inactive) | > 30 µM (inactive) | > 30 µM (inactive) | > 30 µM (inactive) | > 30 µM (inactive)
CN1N=C(N)c2cn([C@@H]3O[C@H](COP(=O)(O)O)[C@@H](O)[C@H]3O)c3ncnc1c23 [TRICIRIBINE PHOSPHATE] | > 30 µM (inactive) | > 30 µM (inactive) | > 30 µM (inactive) | > 30 µM (inactive) | > 30 µM (inactive) | > 30 µM (inactive) | > 30 µM (inactive)
Cc1cc([C@@H](C)Nc2ccccc2C(=O)O)c2nc(N3CCOCC3)cc(=O)n2c1 [AZD-6482] | > 30 µM (inactive) | > 30 µM (inactive) | > 30 µM (inactive) | > 30 µM (inactive) | > 30 µM (inactive) | > 30 µM (inactive) | > 30 µM (inactive)
COC(=O)[C@@]1(O)C[C@H]2O[C@]1(C)n1c3ccccc3c3c4c(c5c6ccccc6n2c5c31)C(=O)NC4 [K-252A] | > 30 µM (inactive) | 0.02 µM (active) | 0.19 µM (active) | > 30 µM (inactive) | > 30 µM (inactive) | 2.37 µM (active) | > 30 µM (inactive)
CCS(=O)(=O)N1CC(CC#N)(n2cc(-c3ncnc4[nH]ccc34)cn2)C1 [BARICITINIB] | > 30 µM (inactive) | > 30 µM (inactive) | 0.312 µM (active) | > 30 µM (inactive) | > 30 µM (inactive) | > 30 µM (inactive) | > 30 µM (inactive)
Cc1cc(-c2cc(O)ccc2Cl)cc2nnc(Nc3ccc(OCCN4CCCC4)cc3)nc12 | > 30 µM (inactive) | > 30 µM (inactive) | > 30 µM (inactive) | > 30 µM (inactive) | > 30 µM (inactive) | > 30 µM (inactive) | > 30 µM (inactive)
Cc1c(F)cc(C(=O)NC2CC2)cc1-c1ccc(C(=O)NCC(C)(C)C)cn1 [LOSMAPIMOD] | > 30 µM (inactive) | > 30 µM (inactive) | > 30 µM (inactive) | > 30 µM (inactive) | > 30 µM (inactive) | > 30 µM (inactive) | > 30 µM (inactive)
O=C(c1ccc(F)c(F)c1Nc1ccc(I)cc1F)N1CC(O)([C@@H]2CCCCN2)C1 [COBIMETINIB] | > 30 µM (inactive) | > 30 µM (inactive) | > 30 µM (inactive) | > 30 µM (inactive) | > 30 µM (inactive) | > 30 µM (inactive) | > 30 µM (inactive)
